Test system: adulte ovarektomierte Ratten
Assay: Uterus wet weight after single oral application in adult ovariectomized rats (oral estrogenic effect, dose-response analysis)
Format: in vivo
Conditions: suspended in Myrj, 3-100 µg/T (dose refers to steroid part), uterus wet weight on day 4, Abbildungen 1 und 2
From the text: Als Vergleiche dienten Ethinylestradiol (EE) und 14α,15α-Methylen-estra-1,3,5(10)-trien-3,17β-diol (Code: J824) Die Ermittlung der Uterusfeuchtmassen nach einmaliger oraler Substanzapplikation sowie die Dosis-Wirkungsanalysen der Substanzen wurde zur Bemessung einer Estrogenwirkung herangezogen.
Sowohl Uterus als auch Vagina zeigen bei ovarektomierten Ratten eine von der Estrogendosis abhängige Gewichtszunahme. Diese ist auf eine Proliferation der Schleimhäute, erhöhte Proteinsynthese, aber auch auf eine Wassereinlagerung zurückzuführen. Für die der Erfindung zu Grunde liegenden Untersuchungen wurden adulte ovarektomierte Ratten eingesetzt. In einer kontrollierten Studie wurden Ester des 14α,15α-Methylen-estradiols auf estrogene Wirkung bei oraler Applikation gegen Ethinylestradiol(EE) und 14α,15α-Methylen-estradiol (J 824) geprüft. Die angegebenen Dosierungen beziehen sich auf den Steroidkern der Moleküle. Die Testsubstanzen wurden einmalig oral appliziert. Als Parameter einer Estrogenwirkung wurden am 4. Tag des Versuches die Uterusgewichte ermittelt (Feuchtgewichte).
Weibliche Ratten [Stamm: BOR:WISW (SPF/Cpb)], Körpermasse zu Versuchsbeginn 200 - 240 g wurden ovarektomiert und 10 Tage nach diesem Eingriff randomisiert den Versuchsgruppen zugeordnet. Dann erfolgte die einmalige orale Applikation (Tag 1) der Prüfsubstanzen. Am 4. […]

Compound: C[C@]12CC[C@@H]3c4ccc(O)cc4CC[C@H]3[C@@]13C[C@H]3C[C@@H]2O [J824, 14α,15α-Methylen-estra-1,3,5(10)-trien-3,17β-diol]
- orale Estrogenwirkung (Uterusfeuchtmassen): bessere estrogene Wirkung des J824 gegenüber EE

— EP0707593B1, “ORALLY ADMINISTERABLE ESTERS OF 14 ALPHA,15 ALPHA-METHYLENE-OESTRADIOL WITH AN OESTROGENIC ACTION” (Jenapharm GmbH & Co. KG, priority 1993, dated 1995)
